From ChEMBL document CHEMBL4049403, “Oligo-aspartic acid conjugates with benzo[c][2,6]naphthyridine-8-carboxylic acid scaffold as picomolar inhibitors of CK2” (Bioorg Med Chem, 2017)
Where a SMILES comes first, the peptide text is derived from it. The star is where a group is joined. X1 = O=C(O)c1ccc2c(c1)nc(OCCCCCCCCC(=O)*)c1ccncc12

Columns and labels:
[1] = biological target: Myosin light chain kinase, smooth muscle (Homo sapiens) (UniProt Q15746); experiment: Inhibition of human SmMLCK assessed as residual activity at 1 uM in presence of [33P]ATP by filter binding assay relative to control
[2] = biological target: Dual specificity protein kinase CLK2 (Homo sapiens) (UniProt P49760); experiment: Inhibition of human CLK2 assessed as residual activity at 1 uM in presence of 33P-ATP by filter-binding assay relative to control
[3] = biological target: Eukaryotic elongation factor 2 kinase (Homo sapiens) (UniProt O00418); experiment: Inhibition of human EF2K assessed as residual activity at 1 uM in presence of [33P]ATP by filter binding assay relative to control
[4] = biological target: Interleukin-1 receptor-associated kinase 4 (Homo sapiens) (UniProt Q9NWZ3); experiment: Inhibition of human IRAK4 assessed as residual activity at 1 uM in presence of [33P]ATP by filter binding assay relative to control
[5] = biological target: Maternal embryonic leucine zipper kinase (Homo sapiens) (UniProt Q14680); experiment: Inhibition of human MELK assessed as residual activity at 1 uM in presence of [33P]ATP by filter binding assay relative to control
[6] = biological target: Serine/threonine-protein kinase 3 (Homo sapiens) (UniProt Q13188); experiment: Inhibition of human MST2 assessed as residual activity at 1 uM in presence of [33P]ATP by filter binding assay relative to control
[7] = biological target: Mitogen-activated protein kinase 7 (Homo sapiens) (UniProt Q13164); experiment: Inhibition of human ERK5 assessed as residual activity at 1 uM in presence of 33P-ATP by filter-binding assay relative to control
[8] = biological target: RAC-alpha serine/threonine-protein kinase (Homo sapiens) (UniProt P31749); experiment: Inhibition of human PKBa assessed as residual activity at 1 uM in presence of [33P]ATP by filter binding assay relative to control
[9] = biological target: CDK2/Cyclin A2 (Homo sapiens) (UniProt P24941+P20248); experiment: Inhibition of human CDK2/Cyclin A assessed as residual activity at 1 uM in presence of [33P]ATP by filter binding assay relative to control; assay type: protein-complex assay
[10] = biological target: Serine/threonine-protein kinase PINK1, mitochondrial (Homo sapiens) (UniProt Q9BXM7); experiment: Inhibition of human PINK assessed as residual activity at 1 uM in presence of [33P]ATP by filter binding assay relative to control
[11] = biological target: Serine/threonine-protein kinase pim-1 (Homo sapiens) (UniProt P11309); experiment: Inhibition of human PIM1 assessed as residual activity at 1 uM in presence of 33P-ATP by filter-binding assay relative to control
[12] = biological target: Ribosomal protein S6 kinase beta-1 (Homo sapiens) (UniProt P23443); experiment: Inhibition of human S6K1 assessed as residual activity at 1 uM in presence of 33P-ATP by filter-binding assay relative to control
[13] = biological target: Serine/threonine-protein kinase tousled-like 1 (Homo sapiens) (UniProt Q9UKI8); experiment: Inhibition of human TLK1 assessed as residual activity at 1 uM in presence of 33P-ATP by filter-binding assay relative to control
[14] = biological target: Ephrin type-B receptor 1 (Homo sapiens) (UniProt P54762); experiment: Inhibition of human EPHB1 assessed as residual activity at 1 uM in presence of [33P]ATP by filter binding assay relative to control
[15] = biological target: Protein kinase C gamma type (Homo sapiens) (UniProt P05129); experiment: Inhibition of human PKCgamma assessed as residual activity at 1 uM in presence of [33P]ATP by filter binding assay relative to control
[16] = biological target: Testis-specific serine/threonine-protein kinase 1 (Homo sapiens) (UniProt Q9BXA7); experiment: Inhibition of human TSSK1 assessed as residual activity at 1 uM in presence of [33P]ATP by filter binding assay relative to control
[17] = biological target: Serine/threonine-protein kinase PAK 5 (Homo sapiens) (UniProt Q9P286); experiment: Inhibition of human PAK5 assessed as residual activity at 1 uM in presence of [33P]ATP by filter binding assay relative to control
[18] = biological target: Fibroblast growth factor receptor 1 (Homo sapiens) (UniProt P11362); experiment: Inhibition of human FGFR1 assessed as residual activity at 1 uM in presence of [33P]ATP by filter binding assay relative to control
[19] = biological target: Mitogen-activated protein kinase kinase kinase 9 (Homo sapiens) (UniProt P80192); experiment: Inhibition of human MLK1 assessed as residual activity at 1 uM in presence of 33P-ATP by filter-binding assay relative to control
[20] = biological target: Dual specificity tyrosine-phosphorylation-regulated kinase 3 (Homo sapiens) (UniProt O43781); experiment: Inhibition of human DYRK3 assessed as residual activity at 1 uM in presence of 33P-ATP by filter-binding assay relative to control
[21] = biological target: AMP-activated protein kinase, AMPK (Homo sapiens) (UniProt P54646+O43741+P54619+Q9UGJ0+Q9Y478+Q13131+Q9UGI9); experiment: Inhibition of human AMPK assessed as residual activity at 1 uM in presence of 33P-ATP by filter-binding assay relative to control
[22] = biological target: Tyrosine-protein kinase BTK (Homo sapiens) (UniProt Q06187); experiment: Inhibition of human BTK assessed as residual activity at 1 uM in presence of 33P-ATP by filter-binding assay relative to control
[23] = biological target: Homeodomain-interacting protein kinase 1 (Homo sapiens) (UniProt Q86Z02); experiment: Inhibition of human HIPK1 assessed as residual activity at 1 uM in presence of [33P]ATP by filter binding assay relative to control
[24] = biological target: Inhibitor of nuclear factor kappa-B kinase subunit epsilon (Homo sapiens) (UniProt Q14164); experiment: Inhibition of human IKKe assessed as residual activity at 1 uM in presence of 33P-ATP by filter-binding assay relative to control
[25] = biological target: Serine/threonine-protein kinase pim-2 (Homo sapiens) (UniProt Q9P1W9); experiment: Inhibition of human PIM2 assessed as residual activity at 1 uM in presence of [33P]ATP by filter binding assay relative to control
[26] = biological target: Mitogen-activated protein kinase 11 (Homo sapiens) (UniProt Q15759); experiment: Inhibition of human P38b MAPK assessed as residual activity at 1 uM in presence of [33P]ATP by filter binding assay relative to control
[27] = biological target: Ribosomal protein S6 kinase alpha-3 (Homo sapiens) (UniProt P51812); experiment: Inhibition of human RSK2 assessed as residual activity at 1 uM in presence of 33P-ATP by filter-binding assay relative to control
[28] = biological target: Serine/threonine-protein kinase TAO1 (Homo sapiens) (UniProt Q7L7X3); experiment: Inhibition of human TAO1 assessed as residual activity at 1 uM in presence of 33P-ATP by filter-binding assay relative to control
[29] = biological target: Serine/threonine-protein kinase PAK 4 (Homo sapiens) (UniProt O96013); experiment: Inhibition of human PAK4 assessed as residual activity at 1 uM in presence of [33P]ATP by filter binding assay relative to control

Chain of Mitogen-activated protein kinase 7 (Homo sapiens) (Q13164 2-816 limits assumed): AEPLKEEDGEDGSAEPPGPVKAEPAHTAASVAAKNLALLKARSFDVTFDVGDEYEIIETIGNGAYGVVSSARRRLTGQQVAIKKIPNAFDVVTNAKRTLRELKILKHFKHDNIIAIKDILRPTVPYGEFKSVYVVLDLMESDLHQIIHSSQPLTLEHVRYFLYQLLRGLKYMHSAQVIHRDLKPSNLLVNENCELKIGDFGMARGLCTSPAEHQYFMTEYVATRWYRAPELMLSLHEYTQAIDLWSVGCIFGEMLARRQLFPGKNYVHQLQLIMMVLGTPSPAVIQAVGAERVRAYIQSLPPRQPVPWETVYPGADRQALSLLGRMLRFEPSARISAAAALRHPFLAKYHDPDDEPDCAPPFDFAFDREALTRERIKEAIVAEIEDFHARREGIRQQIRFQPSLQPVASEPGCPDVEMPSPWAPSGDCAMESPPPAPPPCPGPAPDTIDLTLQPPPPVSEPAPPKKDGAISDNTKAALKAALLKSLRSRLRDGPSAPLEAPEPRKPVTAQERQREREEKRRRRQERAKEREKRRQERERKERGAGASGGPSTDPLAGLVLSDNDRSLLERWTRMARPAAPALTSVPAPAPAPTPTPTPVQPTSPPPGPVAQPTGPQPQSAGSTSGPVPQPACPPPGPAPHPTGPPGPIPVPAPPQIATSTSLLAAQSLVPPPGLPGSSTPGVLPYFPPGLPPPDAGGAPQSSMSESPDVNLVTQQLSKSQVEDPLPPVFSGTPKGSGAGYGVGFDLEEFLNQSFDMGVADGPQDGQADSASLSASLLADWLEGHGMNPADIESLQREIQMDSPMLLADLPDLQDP
Chain of Ribosomal protein S6 kinase beta-1 (Homo sapiens) (P23443 whole entry, looked up): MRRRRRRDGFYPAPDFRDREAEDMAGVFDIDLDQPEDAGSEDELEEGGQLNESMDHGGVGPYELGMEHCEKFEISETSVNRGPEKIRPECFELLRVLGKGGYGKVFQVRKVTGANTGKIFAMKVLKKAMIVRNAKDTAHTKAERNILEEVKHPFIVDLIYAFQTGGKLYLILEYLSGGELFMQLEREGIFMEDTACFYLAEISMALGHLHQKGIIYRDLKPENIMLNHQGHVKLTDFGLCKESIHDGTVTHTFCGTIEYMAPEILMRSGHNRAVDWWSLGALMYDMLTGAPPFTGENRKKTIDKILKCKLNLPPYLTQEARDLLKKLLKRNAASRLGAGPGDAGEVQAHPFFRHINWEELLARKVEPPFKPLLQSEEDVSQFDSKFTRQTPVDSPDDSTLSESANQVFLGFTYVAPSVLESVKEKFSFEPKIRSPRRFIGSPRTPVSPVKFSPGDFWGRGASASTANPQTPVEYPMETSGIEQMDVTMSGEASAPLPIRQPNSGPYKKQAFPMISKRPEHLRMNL
Chain of Serine/threonine-protein kinase TAO1 (Homo sapiens) (Q7L7X3 whole entry): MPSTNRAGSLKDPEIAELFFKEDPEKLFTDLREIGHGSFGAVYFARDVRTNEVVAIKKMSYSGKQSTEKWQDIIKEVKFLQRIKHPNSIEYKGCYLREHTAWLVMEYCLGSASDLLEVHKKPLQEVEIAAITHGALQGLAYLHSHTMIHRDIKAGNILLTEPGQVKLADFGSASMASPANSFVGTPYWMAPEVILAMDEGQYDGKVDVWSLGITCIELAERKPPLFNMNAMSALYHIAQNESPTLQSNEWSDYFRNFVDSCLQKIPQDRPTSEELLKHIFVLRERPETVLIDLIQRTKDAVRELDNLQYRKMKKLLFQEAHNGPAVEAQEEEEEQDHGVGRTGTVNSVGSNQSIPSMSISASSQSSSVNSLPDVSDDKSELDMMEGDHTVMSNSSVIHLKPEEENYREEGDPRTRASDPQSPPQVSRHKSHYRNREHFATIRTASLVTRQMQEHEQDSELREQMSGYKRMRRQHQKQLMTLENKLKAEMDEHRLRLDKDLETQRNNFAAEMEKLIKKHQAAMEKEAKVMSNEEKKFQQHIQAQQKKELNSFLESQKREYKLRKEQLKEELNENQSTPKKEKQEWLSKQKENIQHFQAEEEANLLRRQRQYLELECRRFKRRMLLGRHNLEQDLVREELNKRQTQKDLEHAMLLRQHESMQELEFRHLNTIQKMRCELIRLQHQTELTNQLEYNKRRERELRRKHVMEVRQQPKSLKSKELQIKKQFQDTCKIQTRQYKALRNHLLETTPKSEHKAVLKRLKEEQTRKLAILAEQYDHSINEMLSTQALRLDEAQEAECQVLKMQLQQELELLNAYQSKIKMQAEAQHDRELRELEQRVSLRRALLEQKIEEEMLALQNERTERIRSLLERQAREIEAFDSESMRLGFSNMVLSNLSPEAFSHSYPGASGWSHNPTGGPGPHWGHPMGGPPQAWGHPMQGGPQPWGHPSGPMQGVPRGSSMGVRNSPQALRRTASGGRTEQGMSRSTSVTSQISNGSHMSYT
Chain of Serine/threonine-protein kinase PAK 5 (Homo sapiens) (Q9P286 whole entry, looked up): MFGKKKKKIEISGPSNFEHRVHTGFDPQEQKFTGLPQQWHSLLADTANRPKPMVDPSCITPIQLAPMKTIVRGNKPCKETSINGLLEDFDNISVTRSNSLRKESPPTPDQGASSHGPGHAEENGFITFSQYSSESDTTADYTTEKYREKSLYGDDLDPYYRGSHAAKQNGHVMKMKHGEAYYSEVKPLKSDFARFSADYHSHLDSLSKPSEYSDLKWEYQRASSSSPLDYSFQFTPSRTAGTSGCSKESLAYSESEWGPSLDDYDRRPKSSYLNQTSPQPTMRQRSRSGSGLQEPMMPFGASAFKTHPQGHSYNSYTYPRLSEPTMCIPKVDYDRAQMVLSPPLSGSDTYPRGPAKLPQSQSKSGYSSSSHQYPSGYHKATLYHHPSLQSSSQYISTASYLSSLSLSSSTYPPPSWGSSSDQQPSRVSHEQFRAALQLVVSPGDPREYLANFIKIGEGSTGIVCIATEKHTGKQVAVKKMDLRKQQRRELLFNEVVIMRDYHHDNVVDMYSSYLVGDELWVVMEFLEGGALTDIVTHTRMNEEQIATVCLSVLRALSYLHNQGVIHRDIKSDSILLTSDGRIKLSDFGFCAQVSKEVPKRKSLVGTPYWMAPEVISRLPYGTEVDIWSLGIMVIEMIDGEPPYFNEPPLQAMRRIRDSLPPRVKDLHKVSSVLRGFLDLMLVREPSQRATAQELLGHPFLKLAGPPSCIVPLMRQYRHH
Chain of Tyrosine-protein kinase BTK (Homo sapiens) (Q06187 whole entry): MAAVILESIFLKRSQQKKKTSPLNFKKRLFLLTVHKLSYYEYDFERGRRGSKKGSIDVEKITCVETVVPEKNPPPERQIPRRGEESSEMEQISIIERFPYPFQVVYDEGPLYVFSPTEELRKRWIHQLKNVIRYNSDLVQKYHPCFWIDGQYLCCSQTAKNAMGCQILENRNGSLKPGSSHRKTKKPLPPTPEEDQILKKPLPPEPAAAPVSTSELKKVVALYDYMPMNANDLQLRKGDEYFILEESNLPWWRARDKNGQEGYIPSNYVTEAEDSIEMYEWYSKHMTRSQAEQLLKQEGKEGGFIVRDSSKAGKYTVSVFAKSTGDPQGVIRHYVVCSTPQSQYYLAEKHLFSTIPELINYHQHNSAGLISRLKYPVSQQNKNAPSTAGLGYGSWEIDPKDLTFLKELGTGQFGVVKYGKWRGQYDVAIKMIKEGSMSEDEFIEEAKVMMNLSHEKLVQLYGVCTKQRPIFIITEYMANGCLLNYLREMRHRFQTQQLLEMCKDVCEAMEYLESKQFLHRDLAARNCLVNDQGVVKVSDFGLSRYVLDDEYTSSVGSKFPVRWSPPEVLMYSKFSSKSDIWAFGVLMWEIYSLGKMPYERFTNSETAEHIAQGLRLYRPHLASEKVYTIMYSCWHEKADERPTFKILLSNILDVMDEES
Chain of Serine/threonine-protein kinase pim-1 (Homo sapiens) (P11309 whole entry, looked up): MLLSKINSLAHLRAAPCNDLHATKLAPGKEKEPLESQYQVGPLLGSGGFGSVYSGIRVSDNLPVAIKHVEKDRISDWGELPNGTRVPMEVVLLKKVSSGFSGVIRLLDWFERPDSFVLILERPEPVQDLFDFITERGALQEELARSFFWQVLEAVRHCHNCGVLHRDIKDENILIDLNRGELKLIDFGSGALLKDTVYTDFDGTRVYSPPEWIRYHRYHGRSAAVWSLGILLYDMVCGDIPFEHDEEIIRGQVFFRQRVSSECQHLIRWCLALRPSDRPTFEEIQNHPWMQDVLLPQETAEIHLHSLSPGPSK
Chain of Maternal embryonic leucine zipper kinase (Homo sapiens) (Q14680 whole entry, looked up): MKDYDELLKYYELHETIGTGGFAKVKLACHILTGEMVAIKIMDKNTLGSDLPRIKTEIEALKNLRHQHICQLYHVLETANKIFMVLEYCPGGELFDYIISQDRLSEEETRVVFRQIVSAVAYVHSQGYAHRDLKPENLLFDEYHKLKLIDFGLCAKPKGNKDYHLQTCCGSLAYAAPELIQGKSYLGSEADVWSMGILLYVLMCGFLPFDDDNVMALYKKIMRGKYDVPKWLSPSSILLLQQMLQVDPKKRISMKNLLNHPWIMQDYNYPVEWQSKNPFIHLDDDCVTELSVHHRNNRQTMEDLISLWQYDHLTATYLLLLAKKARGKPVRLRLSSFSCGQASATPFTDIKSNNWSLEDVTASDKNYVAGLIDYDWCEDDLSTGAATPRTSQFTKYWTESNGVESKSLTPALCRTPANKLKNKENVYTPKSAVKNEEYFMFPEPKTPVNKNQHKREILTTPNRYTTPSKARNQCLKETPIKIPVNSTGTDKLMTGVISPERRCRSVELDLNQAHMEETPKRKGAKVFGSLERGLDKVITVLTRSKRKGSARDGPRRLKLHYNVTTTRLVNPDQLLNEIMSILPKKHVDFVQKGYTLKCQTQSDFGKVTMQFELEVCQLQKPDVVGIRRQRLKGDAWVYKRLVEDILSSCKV
Chain of Testis-specific serine/threonine-protein kinase 1 (Homo sapiens) (Q9BXA7 whole entry): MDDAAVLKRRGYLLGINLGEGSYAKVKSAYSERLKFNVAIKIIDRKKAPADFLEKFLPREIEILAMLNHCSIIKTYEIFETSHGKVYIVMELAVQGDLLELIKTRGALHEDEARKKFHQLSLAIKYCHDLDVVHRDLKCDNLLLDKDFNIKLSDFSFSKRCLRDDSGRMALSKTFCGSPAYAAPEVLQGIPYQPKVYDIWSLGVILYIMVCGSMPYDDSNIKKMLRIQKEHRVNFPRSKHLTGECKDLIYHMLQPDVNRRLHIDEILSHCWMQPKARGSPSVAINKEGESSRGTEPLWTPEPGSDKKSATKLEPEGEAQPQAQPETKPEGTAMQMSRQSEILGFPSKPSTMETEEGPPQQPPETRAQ

- Activity [1]: 98%
- Activity [2]: 19%
- Activity [3]: 100%
- Activity [4]: 103%
- Activity [5]: 93%
- Activity [6]: 92%
- Activity [7]: 39%
- Activity [8]: 89%
- Activity [9]: 82%
- Activity [10]: 93%
- Activity [11]: 64%
- Activity [12]: 31%
- Activity [13]: 63%
- Activity [14]: 89%
- Activity [15]: 94%
- Activity [16]: 84%
- Activity [17]: 97%
- Activity [18]: 92%
- Activity [19]: 42%
- Activity [20]: 4%
- Activity [21]: 11%
- Activity [22]: 62%
- Activity [23]: 86%
- Activity [24]: 13%
- Activity [25]: 80%
- Activity [26]: 107%
- Activity [27]: 62%
- Activity [28]: 65%
- Activity [29]: 107%
SMILES: NCCCC[C@H](NC(=O)[C@H](CC(=O)O)NC(=O)[C@H](CC(=O)O)NC(=O)[C@H](CC(=O)O)NC(=O)[C@H](CC(=O)O)NC(=O)[C@H](CC(=O)O)NC(=O)[C@H](CC(=O)O)NC(=O)CCCCCCCCOc1nc2cc(C(=O)O)ccc2c2cnccc12)C(=O)O (X1-DDDDDDK-OH)
